According to publication PMC6770154, “A Multi-Biochemical and In Silico Study on Anti-Enzymatic Actions of Pyroglutamic Acid against PDE-5, ACE, and Urease Using Various Analytical Techniques: Unexplored Pharmacological Properties and Cytotoxicity Evaluation” (Biomolecules, 2019):

Legend:
Jack bean urease (JBU) = Jack bean urease (JBU) (Canavalia ensiformis, UniProt P07374); assay: ESI-MS monitoring of urea depletion; type: biochemical
[1] = target: T1, phosphodiesterase-5A1 (PDE5A1) (Homo sapiens, UniProt O76074); assay: biochemical
T1 construct: gene PDE5A

[2] = target: human angiotensin-converting enzyme (ACE) (Homo sapiens, UniProt P12821); assay: spectrophotometric hippuric acid formation, % inhibition at […]; type: biochemical
Chain of human angiotensin-converting enzyme (ACE) (P12821 30-1306): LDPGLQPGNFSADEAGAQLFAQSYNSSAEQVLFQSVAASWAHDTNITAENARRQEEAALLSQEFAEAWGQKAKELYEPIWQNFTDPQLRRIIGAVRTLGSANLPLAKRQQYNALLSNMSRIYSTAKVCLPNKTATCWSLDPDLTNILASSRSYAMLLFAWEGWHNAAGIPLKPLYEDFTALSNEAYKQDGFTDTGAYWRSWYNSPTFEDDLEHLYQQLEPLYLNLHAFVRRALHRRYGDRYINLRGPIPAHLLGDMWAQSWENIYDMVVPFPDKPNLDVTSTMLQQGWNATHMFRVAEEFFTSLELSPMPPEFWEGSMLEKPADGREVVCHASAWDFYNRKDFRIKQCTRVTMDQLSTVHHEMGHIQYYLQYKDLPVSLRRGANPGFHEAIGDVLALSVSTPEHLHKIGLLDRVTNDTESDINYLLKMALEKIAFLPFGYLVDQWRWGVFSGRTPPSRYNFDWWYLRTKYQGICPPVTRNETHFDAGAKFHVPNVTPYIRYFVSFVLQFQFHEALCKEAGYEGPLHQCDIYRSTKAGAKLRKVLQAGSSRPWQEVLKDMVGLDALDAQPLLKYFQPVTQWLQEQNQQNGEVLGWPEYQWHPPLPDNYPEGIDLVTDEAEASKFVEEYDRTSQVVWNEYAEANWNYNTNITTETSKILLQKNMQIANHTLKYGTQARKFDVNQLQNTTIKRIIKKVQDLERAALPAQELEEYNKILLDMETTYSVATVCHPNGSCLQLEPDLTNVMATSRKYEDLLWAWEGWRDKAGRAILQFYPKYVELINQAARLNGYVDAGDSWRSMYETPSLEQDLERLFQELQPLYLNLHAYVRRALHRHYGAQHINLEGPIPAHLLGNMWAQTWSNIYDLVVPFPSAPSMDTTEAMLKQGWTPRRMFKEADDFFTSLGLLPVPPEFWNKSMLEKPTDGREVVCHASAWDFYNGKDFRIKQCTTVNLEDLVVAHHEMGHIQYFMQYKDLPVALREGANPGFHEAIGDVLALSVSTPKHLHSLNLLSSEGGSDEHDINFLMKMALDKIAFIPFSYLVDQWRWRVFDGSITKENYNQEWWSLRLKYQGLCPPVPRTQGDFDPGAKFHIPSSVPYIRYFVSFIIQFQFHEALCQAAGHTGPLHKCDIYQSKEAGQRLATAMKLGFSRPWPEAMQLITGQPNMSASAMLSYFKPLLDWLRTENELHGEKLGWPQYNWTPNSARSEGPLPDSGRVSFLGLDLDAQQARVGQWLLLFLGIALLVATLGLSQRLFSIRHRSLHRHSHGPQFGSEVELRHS

Chain of Jack bean urease (JBU) (P07374 whole entry, looked up): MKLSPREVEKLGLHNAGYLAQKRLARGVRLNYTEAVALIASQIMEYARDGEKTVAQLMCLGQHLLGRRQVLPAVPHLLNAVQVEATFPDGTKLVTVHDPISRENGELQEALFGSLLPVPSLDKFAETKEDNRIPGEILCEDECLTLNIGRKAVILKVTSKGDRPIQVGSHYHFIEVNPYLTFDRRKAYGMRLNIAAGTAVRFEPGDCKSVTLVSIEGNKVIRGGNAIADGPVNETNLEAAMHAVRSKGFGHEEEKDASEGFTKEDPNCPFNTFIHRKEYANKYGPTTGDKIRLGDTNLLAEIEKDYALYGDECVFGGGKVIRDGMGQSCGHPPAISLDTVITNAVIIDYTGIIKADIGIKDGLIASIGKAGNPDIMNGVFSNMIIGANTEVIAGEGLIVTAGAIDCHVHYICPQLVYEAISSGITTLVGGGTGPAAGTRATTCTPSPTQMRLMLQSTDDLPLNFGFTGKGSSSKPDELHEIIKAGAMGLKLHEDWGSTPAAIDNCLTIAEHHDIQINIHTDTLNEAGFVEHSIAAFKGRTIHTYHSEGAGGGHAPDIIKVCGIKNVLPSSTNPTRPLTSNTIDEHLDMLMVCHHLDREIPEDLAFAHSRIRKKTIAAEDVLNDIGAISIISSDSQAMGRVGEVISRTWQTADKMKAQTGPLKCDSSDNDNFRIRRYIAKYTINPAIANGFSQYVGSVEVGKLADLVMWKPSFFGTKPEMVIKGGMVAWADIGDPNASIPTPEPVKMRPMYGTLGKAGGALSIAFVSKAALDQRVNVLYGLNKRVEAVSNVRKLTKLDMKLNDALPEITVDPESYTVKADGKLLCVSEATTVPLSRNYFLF

With `CC(=O)NO` [AHA, acetohydroxamic acid, reference compound] as the molecule, how does the IC50 (Jack bean urease (JBU)) read?
Its IC50 is 3.9 µM.

Which IC50 [1] does the source give for `O=C1CC[C@@H](C(=O)O)N1` [pGlu, pyroglutamic acid] here?
Its IC50 is 5.23 ± 1.33 µM.

What about the inhibition at 20 µg/mL [2] of the same molecule?
The inhibition at 20 µg/mL was 98.2 ± 1.12%.

What about the IC50 (Jack bean urease (JBU)) of the same molecule?
Its IC50 is 1.8 µM.
